What all share (format): biochemical
One experiment has as its target PKA (Homo sapiens, UniProt P17612). As to the kind of experiment: PKA kinase inhibition, Z'-LYTE FRET assay.
In experiment [1] the target is T1, human PKCθ full length enzyme (Homo sapiens, UniProt Q04759).
T1 construct: human PKCθ full length enzyme; purchased Panvera, Madison, Wis., now Invitrogen, Carlsbad, Calif; P2996
As to the kind of experiment: PKCθ kinase inhibition, IMAP fluorescence polarization assay. The following applies: 6 μM ATP. From the text:
The ability of illustrative Benzo[c][2,7]naphthyridine Derivatives to inhibit PKCθ can be determined using an IMAP Assay (Molecular Devices Corporation, Sunnyvale, Calif.). The materials used include the following: human PKCθ full length enzyme (Panvera, Madison, Wis., now Invitrogen, Carlsbad, Calif., Cat. No. P2996); substrate peptide: 5FAM-[…]-OH (Molecular Devices, Cat. No. RP7032); ATP (Sigma-Aldrich, St. Louis, Mo., Sigma Cat. No. A2383); DTT (e.g., Pierce, now Fisher Scientific, Waltham, Mass., Pierce Cat. No. 20291); 5× kinase reaction buffer (Molecular Devices, Cat. No. R7209); 5× binding buffer A (Molecular Devices, Cat. No. R7282), 5× binding buffer B (Molecular Devices, Cat. No. R7209); IMAP Beads (Molecular Devices, Cat. No. R7284); and 384-well plates (Corning Costar, Acton, Mass., Cat. No. 3710). The reaction buffer is prepared by diluting the 5× stock reaction buffer and adding DTT to obtain a concentration of 3.0 mM. The binding buffer is prepared by diluting the 5× binding buffer A. A master mix solution is prepared using a 90% dilution of the reaction buffer containing 2×ATP (12 μM) and 2× peptide (200 nM). […] The final concentration of compound is 2× and 10% DMSO. DMSO is added to the rest of the master mix to increase the concentration to 10%. 10 μl of the master mix containing 10% DMSO is added to the rest of the wells on the plate except the 2nd column. 20 μl is transferred from the first column to the 2nd column. The compounds are serially diluted in 2:1 ratio starting from the 2nd column. A 2× (2 nM) PKCθ solution is made in the reaction buffer. 10 μl of the PKCθ solution is added to every well to achieve these final concentrations: PKCθ—1 nM; ATP—6 μM; peptide—100 nM; DMSO—5%. Samples are incubated for 25 minutes at room temperature. The binding reagent is prepared by diluting the beads in 1× binding buffer to 800:1. 50 μl of the binding reagent is added to every well and incubated for 20 minutes. Fluorescence polarization is measured using EnVision™ 2100 multilabel reader (PerkinElmer Life Sciences, Wellesley, Mass.). Wells with no ATPs and wells with no enzymes are used as controls.
On the technique in general: Fluorescence polarisation rises when a labelled molecule tumbles more slowly, as on binding a larger partner.

The next experiment concerns the target T2, PDK-1 (Homo sapiens, UniProt O15530).
T2 sequence (O15530 1-556): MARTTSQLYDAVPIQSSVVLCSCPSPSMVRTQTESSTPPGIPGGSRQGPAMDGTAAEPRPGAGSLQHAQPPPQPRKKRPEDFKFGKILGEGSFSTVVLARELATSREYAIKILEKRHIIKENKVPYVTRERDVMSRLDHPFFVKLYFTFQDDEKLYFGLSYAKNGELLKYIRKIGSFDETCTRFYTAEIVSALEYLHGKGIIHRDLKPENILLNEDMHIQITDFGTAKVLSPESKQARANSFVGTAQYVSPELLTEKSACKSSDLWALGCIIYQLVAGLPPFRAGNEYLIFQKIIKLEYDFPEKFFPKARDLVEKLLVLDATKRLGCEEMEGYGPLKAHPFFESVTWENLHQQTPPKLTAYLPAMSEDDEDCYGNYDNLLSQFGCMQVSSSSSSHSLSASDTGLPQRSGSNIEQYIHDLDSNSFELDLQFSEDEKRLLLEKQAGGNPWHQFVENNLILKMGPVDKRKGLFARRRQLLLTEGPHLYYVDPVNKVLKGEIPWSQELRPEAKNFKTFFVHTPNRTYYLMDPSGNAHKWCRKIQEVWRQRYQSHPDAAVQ
Briefly: PDK-1 kinase inhibition ELISA assay (phosphorylation of His6-tagged SGK1 S422D by PDK-1). The following applies: PDK-1 ELISA, Table 11; read-out: Average IC50. A general note: ELISA stands for enzyme-linked immunosorbent assay.

The next experiment has as its target Akt1 (Homo sapiens, UniProt P31749). Briefly: Akt1 kinase inhibition, Z'-LYTE FRET assay. The following applies: 100 μM ATP. An outline of the steps: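 Z'-LYTE FRET format: kinase phosphorylates fluorophore-labelled peptide with ATP, then protease cleaves only non-phosphorylated peptide. Phosphorylation calculated from donor (460 nm)/acceptor (535 nm) emission ratio after 400 nm excitation; IC50 values derived.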

For a further experiment, the target named is S6K (Homo sapiens, UniProt P23443). As to the kind of experiment: S6K kinase inhibition, Z'-LYTE FRET assay. The following applies: 100 μM ATP. An excerpt: The ability of illustrative Benzo[c][2,7]naphthyridine Derivatives to inhibit PKA, Akt1, S6K in vitro can be determined using a Fluorescence Resonance Energy Transfer (FRET) assay, such as a Z′-LYTE™ Kinase Assay Platform, commercially available from Invitrogen (c.f. Rodems et al., ASSAY Drug Devel. Technol. 1:9-19 (2002) and Zhang et al., J. Biomol. Screen. 4:67-73 (1999)). Z′-Lyte™ assay is an in vitro FRET-based assay that utilizes differential sensitivity of phosphorylated and non-phosphorylated peptides to proteolytic cleavage. The peptide substrate (also available from Invitrogen for each of PKA, Akt1 and S6K) is labeled with two different fluorophores, a fluorescence donor at one end of the peptide and a fluorescence acceptor at the other end of the peptide. In the primary kinase reaction, the kinase phosphorylates the peptide substrate in the presence of ATP. In the secondary reaction, a site-specific protease recognizes and cleaves non-phosphorylated peptides, but not phosphorylated peptides. Cleavage disrupts FRET between the donor and acceptor fluorophores on the peptide, whereas uncleaved phosphorylated peptides maintain FRET. Based on a formula that uses the ratio of donor emission (at 460 nm) to acceptor emission (at […]) after excitation of the donor fluorophore at 400 nm, the extent of phosphorylation of the peptide substrates is calculated. IC50 values of illustrative Benzo[c][2,7]naphthyridine Derivatives, shown in Table 12, are calculated using LSW Data Analysis package add-in for Excel (Microsoft).
S6K, sequence (P23443 whole entry): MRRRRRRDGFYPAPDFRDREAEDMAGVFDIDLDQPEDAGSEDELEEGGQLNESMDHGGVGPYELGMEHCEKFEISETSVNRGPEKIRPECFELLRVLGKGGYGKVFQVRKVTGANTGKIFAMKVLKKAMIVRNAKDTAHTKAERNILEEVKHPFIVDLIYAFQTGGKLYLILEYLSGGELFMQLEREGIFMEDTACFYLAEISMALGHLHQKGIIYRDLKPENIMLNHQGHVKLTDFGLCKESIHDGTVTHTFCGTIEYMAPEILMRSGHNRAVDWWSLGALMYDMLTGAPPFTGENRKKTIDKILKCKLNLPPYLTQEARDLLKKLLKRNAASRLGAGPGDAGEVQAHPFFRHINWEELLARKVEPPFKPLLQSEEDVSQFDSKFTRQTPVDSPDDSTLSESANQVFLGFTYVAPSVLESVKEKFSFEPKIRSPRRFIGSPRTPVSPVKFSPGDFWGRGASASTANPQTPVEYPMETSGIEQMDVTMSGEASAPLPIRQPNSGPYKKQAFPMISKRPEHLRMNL

The values below come from patent US20080293712A1, “Benzo[C][2,7]Naphtyridine Derivatives, Methods of Making Thereof and Methods of Use Thereof” (WYETH, priority 2007, published 2008).

Akt1, sequence (P31749 whole entry, species assumed): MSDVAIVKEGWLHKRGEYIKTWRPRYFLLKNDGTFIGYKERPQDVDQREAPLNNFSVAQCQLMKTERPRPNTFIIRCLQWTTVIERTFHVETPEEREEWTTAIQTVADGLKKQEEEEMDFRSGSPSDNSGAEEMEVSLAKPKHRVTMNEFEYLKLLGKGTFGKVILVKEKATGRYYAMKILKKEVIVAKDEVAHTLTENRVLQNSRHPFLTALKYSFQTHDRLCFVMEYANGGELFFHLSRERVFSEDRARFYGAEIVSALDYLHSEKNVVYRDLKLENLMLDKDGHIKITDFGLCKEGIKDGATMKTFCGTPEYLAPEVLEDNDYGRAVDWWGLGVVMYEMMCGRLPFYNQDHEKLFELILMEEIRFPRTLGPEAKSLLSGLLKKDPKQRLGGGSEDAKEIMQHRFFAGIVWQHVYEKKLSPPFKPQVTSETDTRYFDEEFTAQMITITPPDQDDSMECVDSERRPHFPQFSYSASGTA
T1 sequence (Q04759 whole entry): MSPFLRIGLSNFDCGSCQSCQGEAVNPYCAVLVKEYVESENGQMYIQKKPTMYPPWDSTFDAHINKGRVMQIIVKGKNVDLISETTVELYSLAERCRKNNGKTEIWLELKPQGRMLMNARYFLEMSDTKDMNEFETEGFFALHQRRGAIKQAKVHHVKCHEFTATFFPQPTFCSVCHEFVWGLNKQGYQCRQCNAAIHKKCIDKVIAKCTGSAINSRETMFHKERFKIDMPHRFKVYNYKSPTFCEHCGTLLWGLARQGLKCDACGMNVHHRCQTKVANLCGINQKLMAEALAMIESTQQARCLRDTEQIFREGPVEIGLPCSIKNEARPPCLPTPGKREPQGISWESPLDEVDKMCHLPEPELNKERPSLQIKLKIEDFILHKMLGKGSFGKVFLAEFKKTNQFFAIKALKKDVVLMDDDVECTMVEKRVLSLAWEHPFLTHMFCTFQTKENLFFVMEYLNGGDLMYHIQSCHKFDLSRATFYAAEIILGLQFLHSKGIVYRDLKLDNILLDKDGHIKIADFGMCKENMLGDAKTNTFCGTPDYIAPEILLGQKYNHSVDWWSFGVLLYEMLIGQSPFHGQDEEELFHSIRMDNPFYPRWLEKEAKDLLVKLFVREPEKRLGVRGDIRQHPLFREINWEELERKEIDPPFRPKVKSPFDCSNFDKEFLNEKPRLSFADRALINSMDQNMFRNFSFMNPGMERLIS
Protocol for PDK-1: In an in vitro assay, His6-tagged SGK1 with S422D mutation (formerly Upstate Biotech, now Millipore) on Thr256 is allowed to be phosphorylated by PDK-1 in the presence of a Benzo[c][2,7]naphthyridine Derivative. After 20 minutes, the reaction is quenched via the addition of urea. The His6-tagged SGK1 is then bound to 96 well Ni-NTA HisSorb plates (Quiagen, Inc., Valencia, Calif.) and phosphorylated SGK1 is quantitatively detected using rabbit derived anti-phospho SGK antibody (Cell Signaling Technology, Danvers, Mass.) as the primary antibody and horseradish peroxidase (HRP)—coupled anti-rabbit antibody (formerly Zymed, now Invitrogen, Carlsbad, Calif.) as the secondary antibody. HRP is then detected using a chemiluminescent substrate (Pierce Chemical Co., Woburn, Mass.).

In general, IC50 refers to the concentration that gives 50% inhibition. Take `COc1cc2c(cc1OCCN1CCCC1)ncc1c(N)nc(-n3ccnc3)cc12` [Ia-12, 2-(1H-imidazol-1-yl)-9-methoxy-8-(2-pyrrolidin-1-ylethoxy)benzo[c]-2,7-naphthyridin-4-amine]: the half-maximal inhibitory concentration (IC50) against PKA (20 μM ATP) was more than 10000 nM; in experiment [1] it was 255 nM; at PDK-1, 508 nM; against Akt1, 225 nM.

As to `COc1cc2c(cc1OCCCl)ncc1c(N)nc(-n3ccnc3)cc12` [Ia-21, 8-(2-chloroethoxy)-2-(1H-imidazol-1-yl)-9-methoxybenzo[c][2,7]naphthyridin-4-amine], the IC50 at PKA (20 μM ATP) is more than 20000 nM; against PKA (100 μM ATP), more than 2000 nM; against S6K, 1560 nM; on PDK-1, 65 nM; against Akt1, 300 nM.

Turning to `Nc1nc(-n2ccnc2)cc2c1cnc1cc(/C=C/CCN3CCCC3)ccc12` [Ia-24, 2-(1H-imidazol-1-yl)-8-[(1E)-4-pyrrolidin-1-ylbut-1-en-1-yl]benzo[c]-2,7-naphthyridin-4-amine], the IC50 is 240 nM at PKA (20 μM ATP); more than 2000 nM against PKA (100 μM ATP); 1030 nM at S6K; 97 nM on PDK-1; 75 nM at Akt1.

With `COc1cc2c(cc1OCCCN1CCCC1)ncc1c(N)nc(-c3cccnc3)cc12` [Ia-31, 9-Methoxy-2-pyridin-3-yl-8-(3-pyrrolidin-1-ylpropoxy)benzo[c]-2,7-naphthyridin-4-amine], the IC50 at PKA (20 μM ATP) was more than 20000 nM; against PKA (100 μM ATP) it was more than 2000 nM; at S6K, 422 nM; at PDK-1, 120 nM; on Akt1, 170 nM.

Consider `COc1cc2c(cc1O)ncc1c(N)nc(-n3ccnc3)cc12` [Ia-33, 4-Amino-2-(1H-imidazol-1-yl)-9-methoxybenzo[c]-2,7-naphthyridin-8-ol], for which the IC50 against PKA (20 μM ATP) was 2500 nM; at PKA (100 μM ATP), more than 2000 nM; at S6K, more than 2000 nM; on PDK-1, 90 nM; against Akt1, 2000 nM.

On to `CCSc1cc2ncc3c(N)nc(-c4cncc(OC[C@@H](N)Cc5ccccc5)c4)cc3c2cc1OC` [Ia-40, 2-(5-{[(2S)-2-amino-3-phenylpropyl]oxy}pyridin-3-yl)-8-(ethylthio)-9-methoxybenzo[c]-2,7-naphthyridin-4-amine], for which the IC50 at PKA (20 μM ATP) was more than 20000 nM; in experiment [1], 525 nM; on PDK-1, 44.5 nM; at Akt1, 1000 nM.

With `COc1cc2ncc3c(N)nc(-c4cncc(OC[C@H](N)Cc5ccc(F)cc5)c4)cc3c2cc1OC` [Ib-47, 2-(5-{[(2R)-2-amino-3-(4-fluorophenyl)propyl]oxy}pyridin-3-yl)-8,9-dimethoxybenzo[c]-2,7-naphthyridin-4-amine], the IC50 on PKA (20 μM ATP) came out at 25 nM; against PKA (100 μM ATP), 251 nM; against S6K, 93 nM; on PDK-1, 15 nM; against Akt1, 12 nM.

For the compound `COc1cc2ncc3c(N)nc(-c4cncc(OC[C@H](N)CN5Cc6ccccc6C5)c4)cc3c2cc1OC` [Ib-48, 2-(5-{[(2R)-2-amino-3-(1,3-dihydro-2H-isoindol-2-yl)propyl]oxy}pyridin-3-yl)-8,9-dimethoxybenzo[c]-2,7-naphthyridin-4-amine], the IC50 is 2700 nM against PKA (20 μM ATP); more than 2000 nM against PKA (100 μM ATP); 405 nM against S6K; 34 nM on PDK-1; 400 nM against Akt1.

With `COc1cc2ncc3c(N)nc(-c4cncc(OC[C@@H](N)CN5CCc6ccccc6C5)c4)cc3c2cc1OC` [Ib-50, 2-(5-{[(2S)-2-amino-3-(3,4-dihydroisoquinolin-2(1H)-yl)propyl]oxy}pyridin-3-yl)-8,9-dimethoxybenzo[c]-2,7-naphthyridin-4-amine], the IC50 was 2100 nM on PKA (20 μM ATP); more than 2000 nM at PKA (100 μM ATP); 220 nM on S6K; 61 nM on PDK-1; 160 nM against Akt1.

Turning to `COc1cc2ncc3c(N)nc(-c4cncc(OC[C@@H](N)COCc5ccccc5)c4)cc3c2cc1OC` [Ib-51, 2-(5-{[(2S)-2-amino-3-(benzyloxy)propyl]oxy}pyridin-3-yl)-8,9-dimethoxybenzo[c]-2,7-naphthyridin-4-amine], the IC50 is 340 nM against PKA (20 μM ATP); 712 nM against PKA (100 μM ATP); 60 nM at S6K; 5 nM on PDK-1; less than 160 nM at Akt1.

`COc1cc2ncc3c(N)nc(-c4cncc(OC[C@@H](N)Cc5ccccc5Cl)c4)cc3c2cc1OC` [Ib-52, 2-(5-{[(2S)-2-amino-3-(2-chlorophenyl)propyl]oxy}pyridin-3-yl)-8,9-dimethoxybenzo[c]-2,7-naphthyridin-4-amine]: the IC50 worked out at 45 nM against PKA (20 μM ATP); 793 nM on PKA (100 μM ATP); 106 nM against S6K; 8 nM on PDK-1; 6.4 nM against Akt1.

Consider `COc1cc2ncc3c(N)nc(-c4cncc(OC[C@@H](N)Cc5ccc(O)cc5)c4)cc3c2cc1OC` [Ib-53, 4-((2S)-2-Amino-3-{[5-(4-amino-8,9-dimethoxybenzo[c]-2,7-naphthyridin-2-yl)pyridin-3-yl]oxy}propyl)phenol], for which the IC50 against PKA (20 μM ATP) is 400 nM; at PKA (100 μM ATP), more than 2000 nM; against S6K, 86 nM; on PDK-1 it was 17 nM; against Akt1 it was 15 nM.

Turning to `COc1cc2ncc3c(N)nc(-c4cncc(OC[C@H]5CCCN5)c4)cc3c2cc1OC` [Ib-61, 8,9-dimethoxy-2-{5-[(2R)-pyrrolidin-2-ylmethoxy]pyridin-3-yl}benzo[c]-2,7-naphthyridin-4-amine], the IC50 against PKA (20 μM ATP) was 1500 nM; on PKA (100 μM ATP), more than 2000 nM; against S6K, 7 to 82 nM; at PDK-1, 43 nM; at Akt1, 250 nM.

As to `COc1cc2ncc3c(N)nc(-c4cncn4C)cc3c2cc1OC` [Ib-63, 8,9-Dimethoxy-2-(1-methyl-1H-imidazol-5-yl)benzo[c]-2,7-naphthyridin-4-amine], the IC50 against PKA (20 μM ATP) was more than 20000 nM; on PKA (100 μM ATP), more than 2000 nM; against S6K it was 1270 nM; on PDK-1, 66 nM; on Akt1, 400 nM.
